Reference: PMC4684500, “Diversity, Antimicrobial Action and Structure-Activity Relationship of Buffalo Cathelicidins” (PLoS ONE, 2015)
Converted amounts (≈) assume the structure as drawn. Read-outs that look alike come from different tables or passages of the source. Where no end group is shown, it is not given here.

Assays:
P. aeruginosa biofilm = assay: Biofilm assay (crystal violet); assay type: cell-based, Pseudomonas aeruginosa; conditions: 24 h 37°C, crystal violet A570
Experimental: (§1) The efficacy of peptides against biofilms of S. aureus and P. aeruginosa was determined using previously described method. Overnight grown bacterial cultures were diluted (1:100) and 200 μl suspensions were mixed with each peptide (1× and 2× MIC) in a 96 well plate and incubated for 24 h at 37°C. Biofilms were fixed with paraformadehyde solution, cultures were decanted and 0.1% crystal violet solution was added to stain the film. The plate was rinsed thrice with water and air-dried. The stain was dissolved by 100 μl of acetic acid (30%) and absorbance was measured at 570 nm. The experiment was performed in triplicate, 30% acetic acid was taken as a blank.

[1] = tested on: Salmonella typhimurium ATCC-14028; assay type: cell-based
Experimental: (§2) The buCATHL4 peptides were synthesized by G L Biochem (Shanghai, China). Purity and molecular mass of the peptides were provided by the vendors using HPLC and mass spectrometry, respectively. The purity of all peptides were >98%. Minimum inhibitory concentrations (MIC) of buCATHL4s against the pathogenic microorganisms were tested by broth micro-dilution technique. Briefly, bacteria were grown in Mueller Hinton broth (Sigma-Aldrich, MO, USA) at 37°C. The OD of early-log phase cultures were adjusted to 0.08–0.1 and further diluted (1:200) to keep inoculums concentration nearly 10^6 colony forming units (CFU)/ml. Diluted peptides (10 μl) were mixed with equi-volume solution A (0.02% acetic acid containing 0.4% BSA) and were serially diluted in the solution B (0.01% acetic acid containing 0.2% BSA). Bacterial inoculums (90 μl) were mixed with serially diluted peptides and incubated at 37°C for 24 h without shaking. […] All peptides were tested in triplicate. For time kill kinetics experiments, peptides (1×, 2× and 4× MIC) were added to bacterial suspension of Staphylococcus aureus, Salmonella enterica and Pseudomonas aeruginosa, as described in the MIC determination method. Aliquots of representative wells were diluted and plated on Muller Hinton agar plates at 0, 1, 4, 12 and 24 h intervals. Water with 0.01% acetic acid and ampicillin (100 mg/ml) were taken as […] controls, respectively. The results were represented as log CFU/ml.

[2] = tested on: Listeria monocytogenes ATCC-19111; assay type: cell-based
Experimental: as §2

[3] = tested on: Pseudomonas aeruginosa NCDC-0105; assay type: cell-based
Experimental: as §2

[4] = tested on: Pseudomonas aeruginosa ATCC-27853; assay type: cell-based
Experimental: as §2

[5] = tested on: Bacillus cereus NCDC-0240; assay type: cell-based
Experimental: as §2

[6] = tested on: Escherichia coli MTCC-0723; assay type: cell-based
Experimental: as §2

[7] = tested on: Acinetobacter johnsonii NCDC-0072; assay type: cell-based
Experimental: as §2

[8] = tested on: Stahylococcus aureus ATCC-29213; assay type: cell-based, Staphylococcus aureus
Experimental: as §2

[9] = tested on: Stahylococcus aureus NCDC-0111; assay type: cell-based, Staphylococcus aureus
Experimental: as §2

S. aureus biofilm = assay: Biofilm assay (crystal violet); assay type: cell-based, Staphylococcus aureus; conditions: peptide at 1× and 2× MIC, 24 h 37°C, crystal violet A570
Experimental: as §1

S. aureus [10] = assay: Scanning and transmission electron microscopy; assay type: cell-based, Staphylococcus aureus
Experimental: (§3) Early log phase cultures of S. aureus and S. enterica were subjected to different concentration of peptides and incubated at 37°C. The bacterial pellets after centrifugation (5000 g for 10 min) were washed with 0.1M cacodylate buffer (pH 7.2) and were fixed in 2.5% gluteraldehyde at 4°C for 2 h. For scanning electron microscopy, bacteria were dehydrated using gradient series of ethanol wash (30, 50, 70, 90 and absolute). The samples were air-dried overnight, gold coated (Eiko IB-3 ion coater), and viewed in a Zeiss EVO 18 Special Edition SEM. For transmission electron microscopy, fixed samples were adhered to hexagonal PELCO® Grids (Ted Pella, Inc. USA), washed once with Mili-Q water and stained with uranyl acetate (2%) buffer. Samples were viewed in a JEM 1011 (Jeol, Japan) microscope.

S. aureus [11] = assay: Time kill kinetics; assay type: cell-based, Staphylococcus aureus; conditions: for Time to complete elimination of S. aureus: peptide at 4× MIC, time kill kinetics; for Growth inhibition of S. aureus in time kill kinetics: peptide at 2× MIC, plating at 0, 1, 4, 12, 24 h
Experimental: as §2

[12] = tested on: S. aureus, S. typhimurium and P. aeruginosa; assay: Time kill kinetics, three pathogens; assay type: cell-based; conditions: peptide at 4× MIC
Experimental: as §2

S. typhimurium [13] = assay: Scanning and transmission electron microscopy; assay type: cell-based, Salmonella typhimurium; conditions: for Morphological change of S. typhimurium cells (SEM/TEM): increasing concentrations (>2× MIC)
Experimental: as §3

[14] = tested on: bacterial biofilm (S. aureus and P. aeruginosa); assay: Biofilm assay, overall statement; assay type: cell-based; conditions: summary in discussion
Experimental: as §1

S. aureus [15] = assay: LIVE/DEAD BacLight membrane permeability assay; assay type: cell-based, Staphylococcus aureus; conditions: peptide 200μM, log phase culture, SYTO9/PI
Experimental: (§4) The damage to bacterial membrane following addition of peptide was assessed by BacLight kit (Life Technologies, CA, USA). Aliquots of S. aureus, S. enterica and P. aeruginosa cultures from exponential (shaking incubation for 2, 3, and 4 h, respectively) and stationary phases (overnight incubation) were harvested by centrifugation (5000 g for 10 min) and diluted in PBS. Peptides (200μM) were added to bacterial suspension and 50 μl aliquots were removed immediately or after 1 h incubation. Equi-volume mixtures of SYTO9/PI (3 μl/ml bacterial suspension) were added to these aliquots and fluorescent micrographs of stained bacteria were taken at 1000×magnification in a microscope (Olympus BX51 fitted with DP71 camera) with a fluorescence illuminator system.

S. typhimurium [16] = assay: LIVE/DEAD BacLight membrane permeability assay; assay type: cell-based, Salmonella typhimurium; conditions: peptide 200μM, SYTO9/PI; for Clumping (agglutination) of S. typhimurium after peptide addition: log phase culture; for Membrane permeability of latent (stationary phase) S. typhimurium: stationary phase culture, proportion of cells affected comparatively less
Experimental: as §4

[17] = increasing concentrations (>2× MIC)

## CC[C@H](C)[C@H](N)C(=O)N[C@@H](CC(C)C)C(=O)N1CCC[C@H]1C(=O)N[C@@H](Cc1c[nH]c2ccccc12)C(=O)N[C@@H](CCCCN)C(=O)N[C@@H](Cc1c[nH]c2ccccc12)C(=O)N1CCC[C@H]1C(=O)N[C@@H](Cc1c[nH]c2ccccc12)C(=O)N[C@@H](Cc1c[nH]c2ccccc12)C(=O)N1CCC[C@H]1C(=O)N[C@@H](Cc1c[nH]c2ccccc12)C(=O)N[C@@H](CCCNC(=N)N)C(=O)N[C@@H](CCCNC(=N)N)C(N)=O [Indolicidin, indolicidin, reference compound]
P. aeruginosa biofilm; peptide at 1× and 2× MIC
  Reduction in biofilm growth of P. aeruginosa: effective
[1]; Salmonella typhimurium ATCC-14028, broth microdilution, Mueller Hinton broth, ~10^6 CFU/ml, 37°C 24 h, no visible turbidity, triplicate
  MIC: 12.5 µM (≈ 23.8 µg/mL)
[2]; Listeria monocytogenes ATCC-19111, broth microdilution, Mueller Hinton broth, ~10^6 CFU/ml, 37°C 24 h, no visible turbidity, triplicate
  MIC: 6 µM (≈ 11.4 µg/mL)
[3]; Pseudomonas aeruginosa NCDC-0105, broth microdilution, Mueller Hinton broth, ~10^6 CFU/ml, 37°C 24 h, no visible turbidity, triplicate
  MIC: 12.5 µM (≈ 23.8 µg/mL)
[4]; Pseudomonas aeruginosa ATCC-27853, broth microdilution, Mueller Hinton broth, ~10^6 CFU/ml, 37°C 24 h, no visible turbidity, triplicate
  MIC: 25 µM (≈ 47.7 µg/mL)
[5]; Bacillus cereus NCDC-0240, broth microdilution, Mueller Hinton broth, ~10^6 CFU/ml, 37°C 24 h, no visible turbidity, triplicate
  MIC: 0.8 µM (≈ 1.53 µg/mL)
[6]; Escherichia coli MTCC-0723, broth microdilution, Mueller Hinton broth, ~10^6 CFU/ml, 37°C 24 h, no visible turbidity, triplicate
  MIC: 0.8 µM (≈ 1.53 µg/mL)
[7]; Acinetobacter johnsonii NCDC-0072, broth microdilution, Mueller Hinton broth, ~10^6 CFU/ml, 37°C 24 h, no visible turbidity, triplicate
  MIC: 6 µM (≈ 11.4 µg/mL)
[8]; Stahylococcus aureus ATCC-29213, broth microdilution, Mueller Hinton broth, ~10^6 CFU/ml, 37°C 24 h, no visible turbidity, triplicate
  MIC: 3 µM (≈ 5.72 µg/mL)
[9]; Stahylococcus aureus NCDC-0111, broth microdilution, Mueller Hinton broth, ~10^6 CFU/ml, 37°C 24 h, no visible turbidity, triplicate
  MIC: 1.5 µM (≈ 2.86 µg/mL)
S. aureus biofilm
  Reduction in biofilm growth of S. aureus: effective

## AIPWSIWWHLLFKG [buCATHL4G]
S. aureus [10]; [17]
  Morphological change of S. aureus cells (SEM/TEM): budding
S. aureus [10]; lower concentrations (≤2× MIC)
  Morphological change of S. aureus cells (SEM/TEM): swelling and blebing
[1]; ATCC-14028, 24 h
  MIC: 3 µM
[2]; ATCC-19111, 24 h
  MIC: 1.5 µM
[3]; NCDC-0105, 24 h
  MIC: 200 µM
[4]; ATCC-27853, 24 h
  MIC: 200 µM
[5]; NCDC-0240, 24 h
  MIC: 50 µM
[6]; MTCC-0723, 24 h
  MIC: 50 µM
[7]; 24 h
  MIC: 25 µM
S. aureus [11]
  Time to complete elimination of S. aureus: 4 h
[12]
  Killing rate compared with indolicidin and ampicillin: comparatively better killing rate
S. typhimurium [13]
  Morphological change of S. typhimurium cells (SEM/TEM): budding
[14]
  Effect against growth of bacterial biofilms (overall): no marked effect
[8]; ATCC-29213, 24 h
  MIC: 0.8 µM
[9]; 24 h
  MIC: 12.5 µM
S. aureus [15]
  Clumping (agglutination) of S. aureus after peptide addition: immediate clumping
S. typhimurium [16]
  Clumping (agglutination) of S. typhimurium after peptide addition: immediate clumping

## AIPWSIWWRLLFKG [buCATHL4F]
P. aeruginosa biofilm; peptide at 2× MIC
  Reduction in biofilm growth of P. aeruginosa: considerably
S. aureus [10]; [17]
  Morphological change of S. aureus cells (SEM/TEM): budding
S. aureus [10]; lower concentrations (≤2× MIC)
  Morphological change of S. aureus cells (SEM/TEM): swelling and blebing
[1]; ATCC-14028, 24 h
  MIC: 0.2 µM
[2]; ATCC-19111, 24 h
  MIC: 3 µM
[3]; NCDC-0105, 24 h
  MIC: 50 µM
[4]; ATCC-27853, 24 h
  MIC: 100 µM
[5]; NCDC-0240, 24 h
  MIC: 100 µM
[6]; MTCC-0723, 24 h
  MIC: >200 µM
[7]; 24 h
  MIC: 200 µM
S. aureus [11]
  Growth inhibition of S. aureus in time kill kinetics: complete growth inhibition
  Time to complete elimination of S. aureus: 4 h
S. typhimurium [13]
  Morphological change of S. typhimurium cells (SEM/TEM): budding
[14]
  Effect against growth of bacterial biofilms (overall): no marked effect
[8]; ATCC-29213, 24 h
  MIC: 6 µM
[9]; 24 h
  MIC: 6 µM
S. aureus [15]
  Clumping (agglutination) of S. aureus after peptide addition: immediate clumping
S. typhimurium [16]
  Clumping (agglutination) of S. typhimurium after peptide addition: immediate clumping
  Membrane permeability of latent (stationary phase) S. typhimurium: affected membrane permeability

## GLPWILLRWLFFRG [buCATHL4A]
[1]; ATCC-14028, 24 h
  MIC: 100 µM
[2]; ATCC-19111, 24 h
  MIC: 6 µM
[3]; NCDC-0105, 24 h
  MIC: >200 µM
[4]; ATCC-27853, 24 h
  MIC: >200 µM
[5]; NCDC-0240, 24 h
  MIC: 100 µM
[6]; MTCC-0723, 24 h
  MIC: 200 µM
[7]; 24 h
  MIC: 200 µM
[8]; ATCC-29213, 24 h
  MIC: 3 µM
[9]; 24 h
  MIC: 25 µM

## RIRFPWPWRWPWWPRFRG [buCATHL4D]
P. aeruginosa biofilm; peptide at 1× and 2× MIC
  Reduction in biofilm growth of P. aeruginosa: substantial
[1]; ATCC-14028, 24 h
  MIC: 50 µM
[2]; ATCC-19111, 24 h
  MIC: 6 µM
[3]; NCDC-0105, 24 h
  MIC: 50 µM
[4]; ATCC-27853, 24 h
  MIC: 25 µM
[5]; NCDC-0240, 24 h
  MIC: 1.5 µM
[6]; MTCC-0723, 24 h
  MIC: 6 µM
[7]; 24 h
  MIC: 50 µM
S. aureus [11]
  Growth inhibition of S. aureus in time kill kinetics: complete growth inhibition
[12]
  Killing rate compared with indolicidin and ampicillin: comparatively better killing rate
S. typhimurium [13]; more evident with S. typhimurium
  Formation of negative curvature on membrane (SEM/TEM): Formation of negative curvature
[8]; ATCC-29213, 24 h
  MIC: 6 µM
[9]; 24 h
  MIC: 12.5 µM
S. typhimurium [16]
  Membrane permeability of latent (stationary phase) S. typhimurium: affected membrane permeability
S. aureus biofilm
  Reduction in biofilm growth of S. aureus: substantial
